Several values for one entry are separate records, joined by “and”; a condition that tells them apart may be missing. Equal entries are not always repeated. Where two headings read alike, the source gives them in different places. Marks after values point to notes of the source that are not given here.
Columns and labels:
[1] = for ln K: Tricine pH 8.5, 25° C.
Method: The titrations were performed on a NanoITC (TA Instruments, New Castle, Del.) with gold cells with a cell volume of 1 mL. ITC experiments were carried out at 25° C. and the stirring speed was 250 rpm. For the single independent binding experiment, ligand of 20 mM in 100 μL syringe and for the competitive binding site and two independent binding sites model, ligand of 10 mM in 250 μL syringe were used. The injection rate was varied 1.7-10 μL/min for the continuous injection mode under setting tab in ITCRun software. […] The first data point for the incremental injection mode and data for the initial 10 μL of injection for the continuous injection mode is excluded for data fitting with binding models due to reduced amount of the heat flow.
Binding of Ba^2+ and EDTA were performed and analyzed with the single independent binding site model in order to obtain the confidence intervals depending on the number of injections.
The number of injections for the incremental injection experiment was 36 with an injection volume of 2.5 μL. An injection rate of 1.7 μL/min was utilized in the continuous injection experiment. The fit for the continuous injection method was done after 0.1 mM of ligand had been injected.
The experimental time for incremental injection mode experiment was ˜6.5 h (36 injections), while the continuous injection experiment completed within ˜1 h.

[2] = Tricine pH 8.5, 25° C.; for ln K1 / ln K2: EDTA/DPTA mixture, 99% CI in parentheses; for ln K: real-time evaluation from data at inflection points, continuous 7.2 μL/min
Method: The pH of these solutions was adjusted to 8.5 with 1 M NaOH solution. For the single independent binding site and two independent binding sites experiments, Tricine (20 mM) was used as a buffer solution. For the competitive binding site experiment, HEPES (20 mM) was used as a buffer solution.
The titrations were performed on a NanoITC (TA Instruments, New Castle, Del.) with gold cells with a cell volume of 1 mL. ITC experiments were carried out at 25° C. and the stirring speed was 250 rpm. For the single independent binding experiment, ligand of 20 mM in 100 μL syringe and for the competitive binding site and two independent binding sites model, ligand of 10 mM in 250 μL syringe were used. The injection rate was varied 1.7-10 μL/min for the continuous injection mode under setting tab in ITCRun software. During the equilibration, mass transfer of ligand at the tip of the injection syringe reduces the integrated heat of the first injection. The first data point for the incremental injection mode and data for the initial 10 μL of injection for the continuous injection mode is excluded for data fitting with binding models due to reduced amount of the heat flow.
By changing the concentration of EDTA and DPTA in the mixture, the various binding stoichiometry of the receptor, n and m, were simulated. […] The number of injections for the incremental injection mode experiment is 40 with an injection volume of 6 μL. Injection rate for the continuous injection mode is 7.2 μL/min.
The fit for the continuous injection method was done after 0.05 mM of ligand was injected. […] The positive peaks of the binding isotherms in the raw data (top) represent the exothermic heat of binding.

[3] = 1 mM EDTA + 4 mM BaCl2, HEPES pH 8.5, 25° C.
Method: The pH of these solutions was adjusted to 8.5 with 1 M NaOH solution. […] For the competitive binding site experiment, HEPES (20 mM) was used as a buffer solution.
Injection rate for the continuous injection mode is 10 μL/min.
The fit for the continuous injection method was done after 0.1 mM of ligand was injected. […] The positive peaks of the binding isotherms in the raw data (top) represent the exothermic heat of binding.

[4] = biological target: T1, avidin (Gallus gallus, UniProt P02701); test: Continuous injection ITC, single independent binding of lipoic acid to avidin; conditions: 1 mM lipoic acid, continuous 0.1 mL/h into 25 μM avidin, 25° C., pH 6.6
T1 construct: purchased Sigma-Aldrich
Method: (§1) The molecular weight of avidin (12.8 units per mg protein) was used as 66000 g/mol. […] […] HEPES (1 mM) was used as the buffer solution.
(§2) The continuous titrations were performed on a VP-ITC (Malvern Instruments, Westborough, Mass.) with a cell volume of 1.4 mL. The incremental titrations were performed on a NanoITC (TA Instruments, Lindon, Utah) with a cell volume of 1 mL. ITC experiments were carried out at 25° C. and the stirring speed was 270 rpm and 250 rpm for the continuous titration and incremental titration, respectively. For manipulating injection rate, a PHD 2000 syringe pump (Harvard Apparatus, Holliston, Mass.) was connected to the injection syringe of the VP-ITC.
Injection rate for the continuous injection mode was 0.1 mL/h. The fit for the continuous injection method was done after 12 μM of ligand was injected. […] Injection rate for the continuous injection mode is 0.1 mL/h. The fit for the continuous injection method was done after […] of ligand was injected.

[5] = biological target: T1, avidin; conditions: reported; pH 6.8; cited from earlier work
[6] = biological target: T1, avidin; test: Continuous injection ITC, binding of desthiobiotin to avidin, single independent binding site model; conditions: 0.5 mM desthiobiotin, continuous 25 μL/h into 12.5 μM avidin, 25° C., pH 7.2
Method: as §1, §2

[7] = biological target: T1, avidin; test: Continuous injection ITC, competitive binding of desthiobiotin to avidin mixed with lipoic acid; conditions: pH 6.6
Method: as §1, §2
[…] The fit for the continuous injection method was done after 12 μM of ligand was injected. […] […] The fit for the continuous injection method was done after […] of ligand was injected.

[8] = continuous injection 7.2 μL/min
[9] = incremental, 40 injections of 6 μL
[10] = apparent, 12.5 μM avidin mixed with 0.75 mM lipoic acid, 25° C.

T1 sequence (P02701 25-152): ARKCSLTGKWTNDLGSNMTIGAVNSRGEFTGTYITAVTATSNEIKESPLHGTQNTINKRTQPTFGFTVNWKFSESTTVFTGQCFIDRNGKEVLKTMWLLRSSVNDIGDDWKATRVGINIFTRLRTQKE

[Ba+2].[Cl-].[Cl-] [BaCl2, barium chloride]
K2 ([1]; Ba^2+ and EDTA, obtained independently by incremental injection, input for the competitive model, listed as Ba^2+): 1.36e+06 M⁻¹
ln K ([1]; continuous injection 1.7 μL/min, 99% confidence interval in parentheses): 14.15 (14.13, 14.16) and 14.11 (14.09, 14.03) and 13.73 (13.71, 13.75)
ln K ([1]; incremental injection, 9 injections, 99% confidence interval in parentheses): 14.26 (13.5, 16.7) and 14.14 (13.0, 16.5) and 13.99 (13.4, 14.6)
ln K ([1]; incremental injection, 18 injections, 99% confidence interval in parentheses): 14.07 (13.6, 14.6) and 14.05 (13.8, 14.5) and 13.88 (13.3, 14.8)
ln K ([1]; incremental injection, 36 injections, 99% confidence interval in parentheses): 14.07 (13.8, 14.4) and 14.13 (13.9, 14.4) and 14.02 (13.8, 14.3)
ln K ([1]; real-time evaluation from data at inflection point, continuous injection 1.7 μL/min): 14.22

O.O.O.O.O=[N+]([O-])[O-].O=[N+]([O-])[O-].[Ca+2] [Ca(NO3)2, Calcium nitrate tetrahydrate]
ln K1 [2, 8]: 18.11 (18.07, 18.15)
ln K2 [2, 8]: 11.27 (11.25, 11.30)
ln K1 [2, 9]: 19.50 (18.98, 20.33)
ln K2 [2, 9]: 11.42 (11.14, 11.69)
ln K ([2]; association of Ca^2+ and DPTA): 12.24^g
ln K ([2]; association of Ca^2+ and EDTA): 18.98^f
ln K ([3]; continuous injection 10 μL/min, 99% CI in parentheses): 20.535 (20.52, 20.55)
ln K ([3]; incremental, 20 injections of 10 μL, 99% CI in parentheses): 20.47 (20.3, 20.6)
ln K ([3]; real-time evaluation from data at inflection point, continuous injection 10 μL/min): 20.64

O=C(O)CCCCC1CCSS1 (stereo not drawn) [Lipoic acid, α-Lipoic acid]
ΔH1 [4]: -9.95 kcal/mol
Kd ([4]; read-out: Kd1): 520 nM
Kd [5]: 700 nM

C[C@@H]1NC(=O)N[C@@H]1CCCCCC(=O)O [desthiobiotin, d-desthiobiotin]
ΔH [6]: -17.55 kcal/mol
m ([7]; 0.5 mM desthiobiotin, 25 μL/h into 12.5 μM avidin mixed with 0.75 mM lipoic acid, 25° C.): 0.294
Kd,app [7, 10]: 1.04 nM
ΔHapp [7, 10]: -9.74 kcal/mol
ΔH ([7]; evaluated by competitive binding method from lipoic acid and apparent parameters): -19.7 kcal/mol

Reference: US20160216259A1, “ISOTHERMAL TITRATION CALORIMETRY METHODS FOR EVALUATION OF THERMODYNAMIC BINDING PROPERTIES” (The Penn State Research Foundation, priority 2015, published 2016)
